The numbers were not newly measured in patent US10487297B2, “Environmentally preferred antimicrobial compositions” (CHEMLINK LABORATORIES, LLC, priority 2013, dated 2019), which cites them from elsewhere.

SMILES strings stand for the structures.

For the compound `CC(=O)N(CCN(C(C)=O)C(C)=O)C(C)=O` [TAED, N,N,N′N′-tetraacetylethylenediamine], the pKa was 8.

As a reminder, the pKa is the negative logarithm of the acid dissociation constant.
